Holding throughout (format): cell-based, Candida albicans
One test deals with C. albicans WT biofilms. The test can be described thus: Biofilm survival by CFU determination (plating on YPD). Conditions: WT biofilms grown with 500 μg/ml diclofenac, AmB 2.5-10 μg/ml, 24 h. As for the experimental part:
Using the same setup as in Example 2, WT biofilms grown in the presence or absence of diclofenac (500 μg/ml) or Δefg1 biofilms were incubated with various concentrations of Amphotericin B (AmB) (2.5-10 μg/ml) for 24 h, both in the presence or absence of diclofenac. After washing, the remaining living cells within the biofilm were determined by plating on YPD and determination of colony forming units (CFUs).

Test [1] concerns C. albicans WT CAF2-1 biofilms. The test can be described thus: Biofilm cell viability by CellTiter-Blue staining. The conditions noted are these: biofilms treated with 2 mM diclofenac, miconazole 0-500 μM, 24 h. The procedure: To this end, cultures of the WT CAF2-1 were grown overnight (2*10^8 cells/ml) in YPD (1% yeast extract, 2% peptone, 2% glucose) and washed 3 times in PBS (pH 7.4). After dilution (OD600=0.5) in SC (1% CSM, complete amino acid supplement mixture, 1% YNB, yeast nitrogen base; 2% glucose), the cultures were resuspended (100 μl/well) in a 96well microtiter plate. After 1 h of adhesion, the adherent WT cells were incubated with or without 2 mM (about 500 μg/ml) diclofenac (in DMSO, resulting in final concentration of 2.4% DMSO) and allowed biofilm growth for 16 h in SC. Next, the resulting biofilms were washed with PBS and treated with various concentrations of miconazole (0-500 μM) for 24 h in the absence or presence of diclofenac. After washing, the remaining living cells using the CellTiter-Blue quantification method were determined.
Using the same setup as above, WT biofilms grown in the presence or absence of diclofenac (0.5-3 mM or 148-888 μg/mL) were incubated with various concentrations of Caspofungin (0-150 μM) for 24 h, both in the presence or absence of diclofenac. After washing, the remaining living cells within the biofilm was determined by CellTiter-Blue quantification. The MIC50 of caspofungin, diclofenac and the combination of both drugs against pretreated or mature C. albicans biofilms was quantified by XTT reduction assay (Ramage et al.).
A general note: The colour change of resazurin is a common sign of viable cells or microbes.

Test [2] relates to C. albicans biofilm cells. Put plainly: Intracellular accumulation of miconazole in biofilm cells (quantitative HPLC). As for the experimental part:
Quantitative analysis of intracellular accumulation of miconazole in C. albicans biofilm cells. […] After incubation, treated biofilms were resuspended and pooled per 5 wells. After centrifugation, samples were taken for cell counting using a Thoma counting chamber, whereafter the pellet was resuspended in 300 μl 70% acetonitrile/30% PBS. Miconazole concentration in the cell lysates was determined using HPLC and normalized to the number of cells in the pellet. Statistical analysis was performed using unpaired student t test; differences were considered significant if p<0.05.
The intracellular accumulation of miconazole in Δefg1 and WT biofilms upon miconazole treatment was determined to investigate whether the increased miconazole sensitivity of Δefg1 biofilms is due to an increased uptake or decreased efflux of miconazole. To this end, 16 h-old Δefg1 and WT C. albicans biofilms were treated with different concentrations of miconazole for 4 h and the concentration of miconazole in the biofilm cells via HPLC analysis was determined.
The intracellular accumulation of miconazole in WT biofilms grown in the prescence or absence of 500 μg/ml diclofenac upon miconazole treatment was determined to investigate whether the increased miconazole sensitivity of diclofenac-treated WT biofilms is due to an increased uptake or decreased efflux of miconazole. […]

In test [3] the test system is C. albicans biofilms of wild type CAF2. The test can be described thus: Biofilm activity assay, crystal violet quantification (BEC50). As for the experimental part:
(§1) Biofilm activity assay. The activity of miconazole and fluconazole against 16 h-old C. albicans biofilms (10^7 cells/well) was assessed using the crystal violet quantification method. The biofilm-eradicating capacity of a compound was determined as the minimal concentration resulting in 50% eradication of the biofilm (BEC50).
(§2) Miconazole sensitivity was analyzed of biofilms of C. albicans homozygous null mutants affected in genes involved in the cyclic AMP signaling pathway, namely Δcdc35, Δras1, Δpde1, Δpde2 and Δefg1. To this end, the inventors incubated 16 h-old C. albicans biofilms with various concentrations of miconazole for 24 h and determined the remaining biomass using the crystal violet quantification method.
To this end, cultures of the WT CAF2-1 were grown overnight (2×10^8 cells/ml) in YPD (1% yeast extract, 2% peptone, 2% glucose) and washed 3 times in PBS (pH 7.4). After dilution (OD600=0.5) in SC (1% CSM, complete amino acid supplement mixture, 1% YNB, yeast nitrogen base; 2% glucose), the cultures were resuspended (100 μl/well) in a 96well microtiter plate. After 1 h of adhesion, the adherent WT cells were incubated with or without 500 μg/ml diclofenac and allowed biofilm formation for 16 h. Next, the resulting biofilms were washed with PBS and treated with various concentrations of miconazole for 24 h in the absence or presence of diclofenac. After washing, the remaining biomass was determined using the crystal violet quantification method.
The biofilm-eradicating capacity of a compound was determined as the minimal concentration resulting in 50% eradication of the biofilm (BEC50).

Test [4] has as its system C. albicans reintegrant Δefg1(EFG1) biofilms. The description is as above. Conditions: for sensitivity of biofilms to miconazole: Δefg1(EFG1). The procedure:
as §1, §2

In test [5] the test system is C. albicans Δefg1 biofilms. Described as above. The procedure:
as §1, §2

Consider `C[C@@H]1[C@H](O)[C@@H](C)/C=C/C=C/C=C/C=C/C=C/C=C/C=C/[C@H](O[C@@H]2O[C@H](C)[C@@H](O)[C@H](N)[C@@H]2O)C[C@@H]2O[C@](O)(C[C@@H](O)C[C@@H](O)[C@H](O)CC[C@@H](O)C[C@@H](O)CC(=O)O[C@H]1C)C[C@H](O)[C@H]2C(=O)O` [Amphotericin B], for which the “drop of % survival compared to diclofenac-untreated biofilms” value with C. albicans WT biofilms is “about 5 fold”.

Turning to `Clc1ccc(COC(Cn2ccnc2)c2ccc(Cl)cc2Cl)c(Cl)c1` (stereo not drawn) [miconazole], the “sensitivity to miconazole compared to untreated WT biofilms” value in test [1] is on record as “increased sensitivity”. Besides, the “intracellular miconazole levels in diclofenac-treated compared to untreated WT biofilm cells” value in test [2] (62-250 μg/ml miconazole and 500 μg/ml diclofenac) is on record as “significantly increased”. The “intracellular miconazole levels in Δefg1 biofilm cells compared to WT biofilm cells” value in test [2] (62-250 μg/ml miconazole, 4 h) is “significantly increased”. Moreover, the “BEC50 (minimal concentration resulting in 50% eradication of the biofilm)” value in test [3] (WT CAF2, 16 h-old biofilms, 24 h treatment, no diclofenac) was above 250 µg/mL. For the same compound, the BEC50 in test [3] (WT biofilms grown and treated in presence of 500 μg/ml diclofenac) stood at 46 µg/mL; in test [4] (reintegrant Δefg1(EFG1), 16 h-old biofilms, 24 h treatment) it was 100 µg/mL; in test [5] (Δefg1, 16 h-old biofilms, 24 h treatment) it was 25 µg/mL. Also, the “sensitivity of biofilms to miconazole” value is on record as “resistant” in test [3] (WT, high miconazole dose 250 μg/ml); “as sensitive to miconazole as Δefg1 biofilms” in test [4] (high miconazole dose 250 μg/ml); “intermediate miconazole sensitivity phenotype” in test [4] (moderate miconazole doses 62-125 μg/ml); “sensitive” in test [5] (Δefg1, low miconazole dose 31 μg/ml).

For the origin of these results see patent US20140079741A1, “INHIBITION AND TREATMENT OF BIOFILMS” (priority 2011, published 2014).
